Results reported in PubChem BioAssay AID328 (DTP/NCI, 2004).
Values joined by “and” are separate entries in the source; they are usually repeats but may differ in a detail not shown here. Equal entries are not always repeated. Inconclusive results and toxic doses are left out.

Test system: BDF1 mice, P388 leukemia ip, median survival T/C
Test: NCI In Vivo Anticancer Drug Screen. Data for tumor model P388 Leukemia (intraperitoneal) in B6D2F1 (BDF1) mice
Conditions: endpoint: median survival time, higher = longer survival
Summary of the method: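 Mice carrying the transplantable tumour receive compound or vehicle. Survival is followed in each arm, and the treated measure is divided by the vehicle measure.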

[1] = dose: 50.0 mg/kg/injection, schedule: Q01DX009 (ip), vehicle: saline with Tween-80
[2] = dose: 100.0 mg/kg/injection, schedule: Q01DX009 (ip), vehicle: saline with Tween-80
[3] = dose: 200.0 mg/kg/injection, schedule: Q01DX009 (ip), vehicle: saline with Tween-80

In the case of `CN(C=C(C#N)C#N)c1ccccc1`, the T/C [1] is reported as 105 % of control.
With `COc1ccc(/C=C2\CCCC3=C2NC(=S)NC3c2ccc(OC)cc2)cc1` (stereo unspecified) the T/C [1] was 107 % of control, the T/C [2] was 97 % of control and the T/C [3] was 91 % of control.
With `NC(COC(c1ccccc1)(c1ccccc1)c1ccccc1)C(=O)O` (stereo unspecified) the T/C (dose: 50.0 mg/kg/injection, schedule: Q01DX009 (ip), vehicle: Klucel (hydroxypropylcellulose) (HPC)) was 120 % of control, the T/C (dose: 65.0 mg/kg/injection, schedule: Q01DX009 (ip), vehicle: Klucel (hydroxypropylcellulose) (HPC)) was 150 % of control and the T/C (dose: 85.0 mg/kg/injection, schedule: Q04DX003 (ip), vehicle: other) was 120 % of control. The T/C (dose: 100.0 mg/kg/injection, schedule: Q01DX009 (ip), vehicle: Klucel (hydroxypropylcellulose) (HPC)) was 155 % of control and 160 % of control, the T/C (dose: 100.0 mg/kg/injection, schedule: Q04DX003 (ip), vehicle: saline) was 122 % of control and the T/C (dose: 150.0 mg/kg/injection, schedule: Q01DX009 (ip), vehicle: Klucel (hydroxypropylcellulose) (HPC)) was 205 % of control. The T/C (dose: 200.0 mg/kg/injection, schedule: Q01DX009 (ip), vehicle: Klucel (hydroxypropylcellulose) (HPC)) was 90 % of control, the T/C (dose: 200.0 mg/kg/injection, schedule: Q04DX003 (ip), vehicle: other) was 150 % of control and the T/C (dose: 300.0 mg/kg/injection, schedule: Q04DX003 (ip), vehicle: other) was 200 % of control.
In the case of `CS(=O)(=O)CC(O)(c1ccccc1)c1cccs1` (stereo unspecified), the T/C [1] is reported as 99 % of control, the T/C [2] is reported as 100 % of control and the T/C [3] is reported as 100 % of control.
For `O=C(c1ccccc1Cl)c1cccc2ccccc12`, the T/C (dose: 22.0 mg/kg/injection, schedule: Q01DX009 (ip), vehicle: Klucel (hydroxypropylcellulose) (HPC)) was 100 % of control, the T/C (dose: 35.0 mg/kg/injection, schedule: Q01DX009 (ip), vehicle: Klucel (hydroxypropylcellulose) (HPC)) was 100 % of control and the T/C (dose: 175.0 mg/kg/injection, schedule: Q04DX003 (ip), vehicle: Klucel (hydroxypropylcellulose) (HPC)) was 100 % of control. The T/C (dose: 400.0 mg/kg/injection, schedule: Q04DX003 (ip), vehicle: Klucel (hydroxypropylcellulose) (HPC)) was 104 % of control and the T/C (dose: 600.0 mg/kg/injection, schedule: Q04DX003 (ip), vehicle: Klucel (hydroxypropylcellulose) (HPC)) was 104 % of control.
